This data set is described as follows: Deoxyribose degradation assay for generation of hydroxyl radicals. The conditions noted are these: chromium picolinate 1.2 μM; Ferric-EDTA 100 μM; ascorbic acid and hydrogen peroxide 100 μM. The protocol: The potential of chromium compounds to generate hydroxyl radicals in vitro was assessed by the method reported previously (Halliwell et al. (1987) Anal. Biochem., 165:215-219). Briefly, a reaction mixture containing either chromium picolinate or Cr(pa)3, 2-deoxyribose (4 mM), ascorbic acid (100 μM) and hydrogen peroxide (100 μM) in potassium phosphate buffer (pH 7.4, 10 mM) was incubated at 37° C. for 30 minutes. An aliquot of the mixture was treated with 1% (w/v) thiobarbituric acid and 2.8% (w/v) trichloroacetic acid and heated at 90° C. for 10 minutes, rapidly cooled and the amount of chromogen formed in the sample was measured by its absorption at 532 nm. Ferric-EDTA (100 μM) was used as a positive control.

In the case of `O=C([O-])CN(CCN(CC(=O)[O-])CC(=O)O)CC(=O)[O-].[Fe+3]` [Ferric-EDTA, reference compound], the “hydroxyl radical production over control / reagent blank” value is given as “about 3.5 fold”.
